Test results taken from ChEMBL document CHEMBL4619795, “Establishing the Structure-Activity Relationship of Daptomycin” (ACS Med Chem Lett, 2020).

What was measured:
Format in all cases: functional
Staphylococcus aureus [1] = assay: Antibacterial activity against methicillin-resistant Staphylococcus aureus 86 assessed as bacterial growth inhibition in presence of 50 ug/ml calcium ions by CLSI protocol based broth microdilution method
Enterococcus [2] = assay: Antibacterial activity against Enterococcus 60 assessed as bacterial growth inhibition in presence of 50 ug/ml calcium ions by CLSI protocol based broth microdilution method
Enterococcus [3] = assay: Antibacterial activity against Enterococcus 6 assessed as bacterial growth inhibition in presence of 50 ug/ml calcium ions by CLSI protocol based broth microdilution method
Enterococcus faecalis [4] = assay: Antibacterial activity against Streptococcus faecalis assessed as bacterial growth inhibition in presence of 50 ug/ml calcium ions by CLSI protocol based broth microdilution method
Staphylococcus aureus [5] = assay: Antibacterial activity against Staphylococcus aureus ATCC 29213 assessed as bacterial growth inhibition in presence of 50 ug/ml calcium ions by CLSI protocol based broth microdilution method
Staphylococcus aureus [6] = assay: Antibacterial activity against methicillin-resistant Staphylococcus aureus 88 assessed as bacterial growth inhibition in presence of 50 ug/ml calcium ions by CLSI protocol based broth microdilution method
Enterococcus faecalis [7] = assay: Antibacterial activity against Enterococcus faecalis ATCC 29212 assessed as bacterial growth inhibition in presence of 50 ug/ml calcium ions by CLSI protocol based broth microdilution method
Staphylococcus aureus [8] = assay: Antibacterial activity against methicillin-resistant Staphylococcus aureus 14 assessed as bacterial growth inhibition in presence of 50 ug/ml calcium ions by CLSI protocol based broth microdilution method
Staphylococcus aureus [9] = assay: Antibacterial activity against methicillin-resistant Staphylococcus aureus 11 assessed as bacterial growth inhibition in presence of 50 ug/ml calcium ions by CLSI protocol based broth microdilution method

SMILES: CCCCCCCCCC(=O)N[C@@H](Cc1c[nH]c2ccccc12)C(=O)N[C@@H](CC(N)=O)C(=O)N[C@@H](CC(=O)O)C(=O)N[C@@H]1C(=O)NCC(=O)N[C@@H](CC(=O)O)C(=O)N[C@@H](CC(=O)O)C(=O)N[C@H](C)C(=O)N[C@@H](CC(=O)O)C(=O)NCC(=O)N[C@H](CO)C(=O)N[C@@H]([C@@H](C)CC(=O)O)C(=O)N[C@@H](CC(=O)c2ccccc2N)C(=O)O[C@@H]1C
- MIC (Staphylococcus aureus [1]): 16 µg/mL
- MIC (Enterococcus [2]): ≥ 32 µg/mL
- MIC (Enterococcus [3]): ≥ 32 µg/mL
- MIC (Enterococcus faecalis [4]): ≥ 32 µg/mL
- MIC (Staphylococcus aureus [5]): 16 µg/mL
- MIC (Staphylococcus aureus [6]): 8 µg/mL
- MIC (Enterococcus faecalis [7]): ≥ 32 µg/mL
- MIC (Staphylococcus aureus [8]): ≥ 32 µg/mL
- MIC (Staphylococcus aureus [9]): ≥ 32 µg/mL

SMILES: CCCCCCCCCC(=O)N[C@@H](Cc1c[nH]c2ccccc12)C(=O)N[C@@H](CC(N)=O)C(=O)N[C@@H](CC(=O)O)C(=O)N[C@@H]1C(=O)NCC(=O)N[C@@H](CCCNC(=N)N)C(=O)N[C@@H](CC(=O)O)C(=O)N[C@H](C)C(=O)N[C@@H](CC(=O)O)C(=O)NCC(=O)N[C@H](CO)C(=O)N[C@@H]([C@@H](C)CC(=O)O)C(=O)N[C@@H](CC(=O)c2ccccc2N)C(=O)O[C@@H]1C
- MIC (Staphylococcus aureus [1]): 2 µg/mL
- MIC (Enterococcus [2]): 16 µg/mL
- MIC (Enterococcus [3]): 32 µg/mL
- MIC (Enterococcus faecalis [4]): 8 µg/mL
- MIC (Staphylococcus aureus [5]): 2 µg/mL
- MIC (Staphylococcus aureus [6]): 1 µg/mL
- MIC (Enterococcus faecalis [7]): ≥ 32 µg/mL
- MIC (Staphylococcus aureus [8]): 16 µg/mL
- MIC (Staphylococcus aureus [9]): 8 µg/mL

SMILES: CCCCCCCCCC(=O)N[C@@H](Cc1c[nH]c2ccccc12)C(=O)N[C@@H](CC(N)=O)C(=O)N[C@@H](CC(=O)O)C(=O)N[C@@H]1C(=O)NCC(=O)N[C@@H](CCCCN)C(=O)N[C@@H](CC(=O)O)C(=O)N[C@H](C)C(=O)N[C@@H](CC(=O)O)C(=O)NCC(=O)N[C@H](CO)C(=O)N[C@@H]([C@@H](C)CC(=O)O)C(=O)N[C@@H](CC(=O)c2ccccc2N)C(=O)O[C@@H]1C
- MIC (Staphylococcus aureus [1]): 1 µg/mL
- MIC (Enterococcus [2]): 16 µg/mL
- MIC (Enterococcus [3]): ≥ 32 µg/mL
- MIC (Enterococcus faecalis [4]): 8 µg/mL
- MIC (Staphylococcus aureus [5]): 1 µg/mL
- MIC (Staphylococcus aureus [6]): 1 µg/mL
- MIC (Enterococcus faecalis [7]): ≥ 32 µg/mL
- MIC (Staphylococcus aureus [8]): ≥ 32 µg/mL
- MIC (Staphylococcus aureus [9]): 16 µg/mL

SMILES: CCCCCCCCCC(=O)N[C@@H](C)C(=O)N[C@@H](CC(N)=O)C(=O)N[C@@H](CC(=O)O)C(=O)N[C@@H]1C(=O)NCC(=O)N[C@@H](CCCN)C(=O)N[C@@H](CC(=O)O)C(=O)N[C@H](C)C(=O)N[C@@H](CC(=O)O)C(=O)NCC(=O)N[C@H](CO)C(=O)N[C@@H]([C@@H](C)CC(=O)O)C(=O)N[C@@H](CC(=O)c2ccccc2N)C(=O)O[C@@H]1C
- MIC (Staphylococcus aureus [1]): ≥ 32 µg/mL
- MIC (Enterococcus [2]): ≥ 64 µg/mL
- MIC (Enterococcus [3]): ≥ 64 µg/mL
- MIC (Enterococcus faecalis [4]): ≥ 64 µg/mL
- MIC (Staphylococcus aureus [5]): ≥ 32 µg/mL
- MIC (Staphylococcus aureus [6]): ≥ 32 µg/mL
- MIC (Enterococcus faecalis [7]): ≥ 64 µg/mL
- MIC (Staphylococcus aureus [8]): ≥ 32 µg/mL
- MIC (Staphylococcus aureus [9]): ≥ 32 µg/mL

SMILES: CCCCCCCCCC(=O)N[C@@H](Cc1c[nH]c2ccccc12)C(=O)N[C@@H](CC(N)=O)C(=O)N[C@@H](CC(=O)O)C(=O)N[C@@H]1C(=O)NCC(=O)N[C@@H](C)C(=O)N[C@@H](CC(=O)O)C(=O)N[C@H](C)C(=O)N[C@@H](CC(=O)O)C(=O)NCC(=O)N[C@H](CO)C(=O)N[C@@H]([C@@H](C)CC(=O)O)C(=O)N[C@@H](CC(=O)c2ccccc2N)C(=O)O[C@@H]1C
- MIC (Staphylococcus aureus [1]): 0.5 µg/mL
- MIC (Enterococcus [2]): 1 µg/mL
- MIC (Enterococcus [3]): 2 µg/mL
- MIC (Enterococcus faecalis [4]): 4 µg/mL
- MIC (Staphylococcus aureus [5]): 0.5 µg/mL
- MIC (Staphylococcus aureus [6]): 1 µg/mL
- MIC (Enterococcus faecalis [7]): 4 µg/mL
- MIC (Staphylococcus aureus [8]): 0.25 µg/mL
- MIC (Staphylococcus aureus [9]): 0.5 µg/mL

SMILES: CCCCCCCCCC(=O)N[C@@H](Cc1c[nH]c2ccccc12)C(=O)N[C@@H](CC(N)=O)C(=O)N[C@@H](CC(=O)O)C(=O)N[C@@H]1C(=O)NCC(=O)N[C@@H](CC(N)=O)C(=O)N[C@@H](CC(=O)O)C(=O)N[C@H](C)C(=O)N[C@@H](CC(=O)O)C(=O)NCC(=O)N[C@H](CO)C(=O)N[C@@H]([C@@H](C)CC(=O)O)C(=O)N[C@@H](CC(=O)c2ccccc2N)C(=O)O[C@@H]1C
- MIC (Staphylococcus aureus [1]): ≥ 32 µg/mL
- MIC (Enterococcus [2]): ≥ 32 µg/mL
- MIC (Enterococcus [3]): ≥ 32 µg/mL
- MIC (Enterococcus faecalis [4]): ≥ 32 µg/mL
- MIC (Staphylococcus aureus [5]): ≥ 32 µg/mL
- MIC (Staphylococcus aureus [6]): ≥ 32 µg/mL
- MIC (Enterococcus faecalis [7]): ≥ 32 µg/mL
- MIC (Staphylococcus aureus [8]): ≥ 32 µg/mL
- MIC (Staphylococcus aureus [9]): ≥ 32 µg/mL

SMILES: CCCCCCCCCC(=O)N[C@@H](Cc1c[nH]c2ccccc12)C(=O)N[C@@H](CC(N)=O)C(=O)N[C@@H](CC(=O)O)C(=O)N[C@@H]1C(=O)NCC(=O)N[C@@H](Cc2ccccc2)C(=O)N[C@@H](CC(=O)O)C(=O)N[C@H](C)C(=O)N[C@@H](CC(=O)O)C(=O)NCC(=O)N[C@H](CO)C(=O)N[C@@H]([C@@H](C)CC(=O)O)C(=O)N[C@@H](CC(=O)c2ccccc2N)C(=O)O[C@@H]1C
- MIC (Staphylococcus aureus [1]): 16 µg/mL
- MIC (Enterococcus [2]): ≥ 32 µg/mL
- MIC (Enterococcus [3]): ≥ 32 µg/mL
- MIC (Enterococcus faecalis [4]): ≥ 32 µg/mL
- MIC (Staphylococcus aureus [5]): 16 µg/mL
- MIC (Staphylococcus aureus [6]): 16 µg/mL
- MIC (Enterococcus faecalis [7]): ≥ 32 µg/mL
- MIC (Staphylococcus aureus [8]): ≥ 32 µg/mL
- MIC (Staphylococcus aureus [9]): ≥ 32 µg/mL

SMILES: CCCCCCCCCC(=O)N[C@@H](Cc1c[nH]c2ccccc12)C(=O)N[C@@H](CC(N)=O)C(=O)N[C@@H](CC(=O)O)C(=O)N[C@@H]1C(=O)NCC(=O)N[C@@H](CC(C)C)C(=O)N[C@@H](CC(=O)O)C(=O)N[C@H](C)C(=O)N[C@@H](CC(=O)O)C(=O)NCC(=O)N[C@H](CO)C(=O)N[C@@H]([C@@H](C)CC(=O)O)C(=O)N[C@@H](CC(=O)c2ccccc2N)C(=O)O[C@@H]1C
- MIC (Staphylococcus aureus [1]): 4 µg/mL
- MIC (Enterococcus [2]): 16 µg/mL
- MIC (Enterococcus [3]): ≥ 32 µg/mL
- MIC (Enterococcus faecalis [4]): ≥ 32 µg/mL
- MIC (Staphylococcus aureus [5]): 4 µg/mL
- MIC (Staphylococcus aureus [6]): 2 µg/mL
- MIC (Enterococcus faecalis [7]): ≥ 32 µg/mL
- MIC (Staphylococcus aureus [8]): 0.5 µg/mL
- MIC (Staphylococcus aureus [9]): 1 µg/mL

SMILES: CCCCCCCCCC(=O)N[C@@H](Cc1c[nH]c2ccccc12)C(=O)N[C@@H](CC(N)=O)C(=O)N[C@@H](CC(=O)O)C(=O)N[C@@H]1C(=O)NCC(=O)N[C@@H](CCCN)C(=O)N[C@@H](CC(=O)O)C(=O)N[C@H](C)C(=O)N[C@@H](CC(=O)O)C(=O)N(C)CC(=O)N[C@H](CO)C(=O)N[C@@H]([C@@H](C)CC(=O)O)C(=O)N[C@@H](CC(=O)c2ccccc2N)C(=O)O[C@@H]1C
- MIC (Staphylococcus aureus [1]): ≥ 32 µg/mL
- MIC (Enterococcus [2]): ≥ 32 µg/mL
- MIC (Enterococcus [3]): ≥ 32 µg/mL
- MIC (Enterococcus faecalis [4]): ≥ 32 µg/mL
- MIC (Staphylococcus aureus [5]): ≥ 32 µg/mL
- MIC (Staphylococcus aureus [6]): ≥ 32 µg/mL
- MIC (Enterococcus faecalis [7]): ≥ 32 µg/mL
- MIC (Staphylococcus aureus [8]): ≥ 32 µg/mL
- MIC (Staphylococcus aureus [9]): ≥ 32 µg/mL

SMILES: CCCCCCCCCC(=O)N[C@@H](Cc1c[nH]c2ccccc12)C(=O)N[C@@H](CC(N)=O)C(=O)N[C@@H](CC(=O)O)C(=O)N[C@@H]1C(=O)NCC(=O)N[C@@H](CCCN)C(=O)N[C@@H](C)C(=O)N[C@H](C)C(=O)N[C@@H](CC(=O)O)C(=O)NCC(=O)N[C@H](CO)C(=O)N[C@@H]([C@@H](C)CC(=O)O)C(=O)N[C@@H](CC(=O)c2ccccc2N)C(=O)O[C@@H]1C
- MIC (Staphylococcus aureus [1]): ≥ 64 µg/mL
- MIC (Enterococcus [2]): ≥ 64 µg/mL
- MIC (Enterococcus [3]): ≥ 64 µg/mL
- MIC (Enterococcus faecalis [4]): ≥ 64 µg/mL
- MIC (Staphylococcus aureus [5]): ≥ 64 µg/mL
- MIC (Staphylococcus aureus [6]): ≥ 64 µg/mL
- MIC (Enterococcus faecalis [7]): ≥ 64 µg/mL
- MIC (Staphylococcus aureus [8]): ≥ 64 µg/mL
- MIC (Staphylococcus aureus [9]): ≥ 64 µg/mL

SMILES: CCCCCCCCCC(=O)N[C@@H](Cc1c[nH]c2ccccc12)C(=O)N[C@@H](CC(N)=O)C(=O)N[C@@H](CC(=O)O)C(=O)N[C@@H]1C(=O)NCC(=O)N[C@@H](CCCN)C(=O)N[C@@H](CC(=O)O)C(=O)N[C@H](C)C(=O)N[C@@H](CC(N)=O)C(=O)NCC(=O)N[C@H](CO)C(=O)N[C@@H]([C@@H](C)CC(=O)O)C(=O)N[C@@H](CC(=O)c2ccccc2N)C(=O)O[C@@H]1C
- MIC (Staphylococcus aureus [1]): 32 µg/mL
- MIC (Enterococcus [2]): ≥ 32 µg/mL
- MIC (Enterococcus [3]): ≥ 32 µg/mL
- MIC (Enterococcus faecalis [4]): ≥ 32 µg/mL
- MIC (Staphylococcus aureus [5]): 16 µg/mL
- MIC (Staphylococcus aureus [6]): 16 µg/mL
- MIC (Enterococcus faecalis [7]): ≥ 32 µg/mL
- MIC (Staphylococcus aureus [8]): ≥ 32 µg/mL
- MIC (Staphylococcus aureus [9]): ≥ 32 µg/mL
